Read-outs that look alike come from different tables or passages of the source.
Assays:
[1] = target: human TrkA (Homo sapiens (Human), UniProt P04629); test: Measurement of TrkA kinase-inhibiting activity using human TrkA-expressing cells; assay type: cell-based; conditions: CHO-K1 cells expressing human TrkA and NFAT-bla; NGF 50 ng/ml; TR-FRET reporter
Procedure: TrkA kinase-inhibiting activity in cell systems was measured using CHO-K1 cells exressing human TrkA and NFAT-bla (CellSenser™ TrkA-NFAT-bla CHO-K1 cells, Invitrogen).
On the day before the assay, CellSenser™ TrkA-NFAT-bla CHO-K1 cells were suspended in an assay medium (Opti-MEM1 Reduced Serum Medium (Invitrogen) containing 0.5% dialysed fetal bovine serum (Invitrogen), 0.1 mM nonessential amino acids (Invitrogen), 1 mM sodium pyruvate (Invitrogen) and antibiotics (100 U/mL penicillin and 100 µg/mL streptomycin (Invitrogen))) and plated at a density of 2.4×10^4 cells/40 μL/well in a 96-well clear bottom plate (Corning, Catalogue No.: 3882). In some wells were added only the assay medium at 40 μL/well (Cell-free). On the day of the assay, 10 mM of the present compound (DMSO solution) was distributed in a 96-well plate (Costar, Catalogue No.: 3363) and serially diluted with DMSO with the geometrical ratio of 3. The serial dilutions were diluted with the assay medium to 100-fold to prepare a solution of the present compound with a 10-fold concentration (DMSO concentration: 1%). To the plate where cells were plated was added the present compound at 5 µL/well and the plate was incubated in a CO2 incubator with 5% CO2, 95% Air at 37° C. for 30 minutes. For a control and a blank, the assay medium containing 1% DMSO was added at 5 µL/well in place of the solution of the present compound. Subsequently the assay medium containing NGF (Mouse 2.5s, Natural, Invitrogen) was added to the plate at 5 µL/well (final concentration of NGF: 50 ng/ml) and the plate was incubated in a CO2 incubator with 5% CO2, 95% Air at 37° C. for 5 hours. For the blank group, the assay medium was added in place of NGF at 5 µL/well. A reporter assay detection reagent ([…]) was added to the plate which was then incubated in the dark at room temperature for 120 minutes. The reporter assay detection reagent was prepared from LiveBLAzer™-FRET B/G Loading Kit (Invitrogen). On the Analyst GT (Molecular Devices Japan, K.K.) the wells were irradiated with excitation light at 405 nm and the fluorescence intensities at 460 nm and 530 nm were measured. The time resolved fluorescence resonance energy transfer (TR-FRET) ratio of each well was calculated according to the following Equation 1: TR-FRET ratio=(A460x−A460F)/(A530x−A530F) [Eq. 1]
A460x: the fluorescence intensity at 460 nm of the present compound, control or blank;
A460F: the fluorescence intensity at 460 nm of the Cell-free;
A530x: the fluorescence intensity at 530 nm of the present compound, control or blank; and
A530x: the fluorescence intensity at 530 nm of the Cell-free.
The TR-FRET inhibition rate (%) of the present compound was calculated according to the following Equation 2: Inhibition rate (%)={1−(AX−AB)/(AC−AB)}×100 [Eq. 2]
wherein AX: the TR-FRET ratio when the present compound is added;
AB: the TR-FRET of the blank; and
AC: the TR-FRET of the control.
The IC50 value by the present compound was calculated from the inhibition curve based on the inhibition rate of the present compound at respective concentrations.

[2] = tested on: NGF-induced vascular hyper permeability; test: Inhibition of rat NGF-induced vascular hyper permeability; assay type: in vivo; conditions: po, 1 mg/kg orally, read-out: Inhibition rate of vascular hyper permeability (%) (time after administration (h))
Procedure: TrkA-inhibiting activity of the present compound was evaluted in vivo. The present compound dissolved in a medium was orally administered (adminstered volume: 5 mL/kg) to male CD(SD)IGS rats (7- to 9-week old, Charles River laboratories Japan, Inc.) shaved on the back. A medium was orally administered (adminstered volume: 5 mL/kg) to the control and normal groups. After 6, 12 or 14 hours of administration, 3 μg/mL of a NGF (Mouse 2.5s, Natural, Invitrogen) solution prepared in 0.1% BSA (Sigma-Aldrich)-containing saline was intracutaneously administered (dose; 50 μL/site) at 3 sites on the back of animals under halothane anesthesia. For the normal group, 0.1% BSA-containing saline was intracutaneously administered (dose; […]) at 3 sites on the back. Immediately after intracutaneous administration, 1% Evans Blue (Tokyo Chemical Industriy Co., Ltd.) was administered intravenously from tail (adminstered volume: 3 mL/kg). After 10 minutes of administration, the animals were sacrificed by bleeding due to incision of the abdominal aorta. The sites of intracutaneous administration on the back (3 sites) were excised and the skin samples were respectively transferred to the wells in a 48-well plate (Asahi Glass Co., Ltd.). Formamide (0.8 mL/well) was added to the plate and the plate was sealed and incubated overnight at 60° C. The formamide extraction solution (200 μL) was transferred to a 96-well plate and the absorbance (wavelength: 620 nm) of Evans Blue extracted in formamide was measured on an absorbance microplate reader (SpectraMAX 190, Molecular Devices Japan, K.K.). Standard samples of Evans Blue dissolved in formamide (0, 0.78, 1.56, 3.13, 6.25, 12.5, 25 and 50 µg/mL) were measured at the same time for the absorance (wavelength: 620 nm) to generate a calibration curve. Based on the calibration curve and the absorbances of samples, the concentrations of Evans Blue in the sample was calculated. The concentrations of Evans Blue for three skin samples collected from one aminal were averaged to obtain the vale for the animal. The rate of inhibition for rat NGF-induced vascular hyper permeability of the present compound was calculated according to the following Equation: Inhibition rate (%)={1−(AX−AN)/(AC−AN)}×100 [Eq. 3]
wherein AX: the concentration of Evans Blue of the test compound (an average value of 3 samples from one animal);
AN: the concentration of Evans Blue of the normal group (an average value of 3 samples from one animal);
AC: the concentration of Evans Blue of the control group (an average value of 3 samples from one animal).

Sequence of human TrkA (P04629 33-796): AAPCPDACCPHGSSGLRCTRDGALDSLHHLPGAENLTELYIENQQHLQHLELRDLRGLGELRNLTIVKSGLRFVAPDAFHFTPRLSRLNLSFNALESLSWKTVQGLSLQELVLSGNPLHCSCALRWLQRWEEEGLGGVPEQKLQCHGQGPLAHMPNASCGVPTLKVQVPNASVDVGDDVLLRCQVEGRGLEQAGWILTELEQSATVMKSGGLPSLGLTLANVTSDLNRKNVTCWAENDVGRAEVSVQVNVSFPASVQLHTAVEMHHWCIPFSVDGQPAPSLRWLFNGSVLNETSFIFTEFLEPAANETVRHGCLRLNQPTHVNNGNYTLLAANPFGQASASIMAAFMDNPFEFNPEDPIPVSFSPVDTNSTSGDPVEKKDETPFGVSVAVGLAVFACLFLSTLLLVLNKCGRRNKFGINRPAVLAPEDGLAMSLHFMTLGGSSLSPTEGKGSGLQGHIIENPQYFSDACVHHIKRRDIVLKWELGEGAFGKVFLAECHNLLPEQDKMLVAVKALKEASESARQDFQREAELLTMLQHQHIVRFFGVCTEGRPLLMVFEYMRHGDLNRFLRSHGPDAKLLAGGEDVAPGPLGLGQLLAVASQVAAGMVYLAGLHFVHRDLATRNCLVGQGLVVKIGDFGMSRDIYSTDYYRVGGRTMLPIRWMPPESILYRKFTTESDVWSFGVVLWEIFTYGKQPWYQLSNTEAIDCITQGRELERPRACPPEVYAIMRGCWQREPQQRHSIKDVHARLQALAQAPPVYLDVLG

Row | Compound | IC50 [1] [µM] | inhibition in vivo at 1 mg/kg ([2]; 14 h after administration) [%] | inhibition in vivo at 1 mg/kg ([2]; 12 h after administration) [%]
1 | Nc1ncc(C(F)(F)F)cc1-c1ccc(Oc2ncc(NC(=O)Nc3cc(C(F)(F)F)ccc3-n3ccc(C(F)(F)F)n3)cn2)cc1 [Example 15-52, 1-(2-{4-[2-amino-5-(trifluoromethyl)-3-pyridinyl]phenoxy}-5-pyrimidinyl)-3-{5-(trifluoromethyl)-2-[3-(trifluoromethyl)-1H-pyrazol-1-yl]phenyl}urea] | 0.004 | 96 | –
2 | Nc1ncc(Cl)cc1-c1ccc(Oc2ncc(NC(=O)Nc3cc(C(F)(F)F)ccc3-c3ccccc3)cn2)cc1 [Example 15-55, 1-{2-[4-(2-amino-5-chloro-3-pyridinyl)phenoxy]-5-pyrimidinyl}-3-[4-(trifluoromethyl)-2-biphenylyl]urea] | 0.004 | 94 | –
3 | Nc1ncc(F)cc1-c1ccc(Oc2ncc(NC(=O)Nc3cc(C(F)(F)F)ccc3-c3ccccc3)cn2)cc1 [Example 15-58, 1-{2-[4-(2-amino-5-fluoro-3-pyridinyl)phenoxy]-5-pyrimidinyl}-3-[4-(trifluoromethyl)-2-biphenylyl]urea] | 0.002 | 100 | –
4 | Nc1ncc(Cl)cc1-c1ccc(Oc2ncc(NC(=O)Nc3cc(C(F)(F)F)ccc3-n3cc(Cl)cn3)cn2)cc1 [Example 15-63, 1-{2-[4-(2-amino-5-chloro-3-pyridinyl)phenoxy]-5-pyrimidinyl}-3-[2-(4-chloro-1H-pyrazol-1-yl)-5-(trifluoromethyl)phenyl]urea] | 0.002 | 99 | –
5 | Nc1ncc(Cl)cc1-c1ccc(Oc2ncc(NC(=O)Nc3cc(Cl)ccc3-n3ccc(C(F)(F)F)n3)cn2)cc1 [Example 15-71, 1-{2-[4-(2-amino-5-chloro-3-pyridinyl)phenoxy]-5-pyrimidinyl}-3-{5-chloro-2-[3-(trifluoromethyl)-1H-pyrazol-1-yl]phenyl}urea] | 0.002 | 100 | –
6 | Nc1ncc(Cl)cc1-c1ccc(Oc2ncc(NC(=O)Nc3ccc(C(F)(F)F)cc3C(F)(F)F)cn2)cc1 [Example 15-77, 1-{2-[4-(2-amino-5-chloro-3-pyridinyl)phenoxy]-5-pyrimidinyl}-3-[2,4-bis(trifluoromethyl)phenyl]urea] | 0.002 | 100 | –
7 | Nc1ncc(C(F)(F)F)cc1-c1ccc(Oc2ncc(NC(=O)Nc3cc(C(F)(F)F)ccc3-n3cc(Cl)cn3)cn2)cc1 [Example 15-87, 1-(2-{4-[2-amino-5-(trifluoromethyl)-3-pyridinyl]phenoxy}-5-pyrimidinyl)-3-[2-(4-chloro-1H-pyrazol-1-yl)-5-(trifluoromethyl)phenyl]urea] | 0.001 | 86 | –
8 | CS(=O)(=O)c1ccc(C(F)(F)F)cc1NC(=O)Nc1cnc(Oc2ccc(-c3cc(F)cnc3N)cc2)nc1 [Example 15-96, 1-{2-[4-(2-amino-5-fluoro-3-pyridinyl)phenoxy]-5-pyrimidinyl}-3-[2-(methylsulfonyl)-5-(trifluoromethyl)phenyl]urea] | 0.0004 | 90 | –
9 | CS(=O)(=O)c1ccc(C(F)(F)F)cc1NC(=O)Nc1cnc(Oc2ccc(-c3cc(C(F)(F)F)cnc3N)cc2)nc1 [Example 15-98, 1-(2-{4-[2-amino-5-(trifluoromethyl)-3-pyridinyl]phenoxy}-5-pyrimidinyl)-3-[2-(methylsulfonyl)-5-(trifluoromethyl)phenyl]urea] | 0.0008 | 80 | –
10 | CS(=O)(=O)c1ccc(C(F)(F)F)cc1NC(=O)Nc1cnc(Oc2ccc(-c3cc(Cl)cnc3N)cc2)nc1 [Example 15-104, 1-{2-[4-(2-amino-5-chloro-3-pyridinyl)phenoxy]-5-pyrimidinyl}-3-[2-(methylsulfonyl)-5-(trifluoromethyl)phenyl]urea] | 0.0005 | 100 | –
11 | CN(C)S(=O)(=O)c1ccc(C(F)(F)F)cc1NC(=O)Nc1cnc(Oc2ccc(-c3cc(C(F)(F)F)cnc3N)cc2)nc1 [Example 15-105, 2-{[(2-{4-[2-amino-5-(trifluoromethyl)-3-pyridinyl]phenoxy}-5-pyrimidinyl)carbamoyl]amino}-N,N-dimethyl-4-(trifluoromethyl)benzenesulfonamide] | 0.004 | 100 | –
12 | O=C(Nc1cnc(Oc2ccc(-c3cnn4ccc(N5CCC5)nc34)cc2)nc1)Nc1cc(C(F)(F)F)ccc1-c1cccnc1 [Example 21-1, 1-(2-(4-(5-(azetidin-1-yl)pyrazolo[1,5-a]pyrimidin-3-yl)phenoxy)pyrimidin-5-yl)-3-(2-(pyridin-3-yl)-5-(trifluoromethyl)phenyl)urea] | 0.001 | 87 | –
13 | Cn1nccc1-c1ccc(C(F)(F)F)cc1NC(=O)Nc1cnc(Oc2ccc(-c3cnn4ccc(N5CCC5)nc34)cc2)nc1 [Example 21-2, 1-(2-(4-(5-(azetidin-1-yl)pyrazolo[1,5-a]pyrimidin-3-yl)phenoxy)pyrimidin-5-yl)-3-(2-(1-methyl-H-pyrazol-5-yl)-5-(trifluoromethyl)phenyl)urea] | 0.001 | 100 | –
14 | COc1ccn2ncc(-c3ccc(Oc4ncc(NC(=O)Nc5cc(C(F)(F)F)ccc5-c5cccnc5)cn4)cc3)c2n1 [Example 21-9, 1-(2-(4-(5-methoxypyrazolo[1,5-a]pyrimidin-3-yl)phenoxy)pyrimidin-5-yl)-3-(2-(pyridin-3-yl)-5-(trifluoromethyl)phenyl)urea] | 0.001 | 100 | –
15 | O=C(Nc1cnc(Oc2ccc(-c3cnn4cccnc34)cc2)nc1)Nc1cc(C(F)(F)F)ccc1-c1cccnc1 [Example 21-13, 1-(2-(4-(pyrazolo[1,5-a]pyrimidin-3-yl)phenoxy)pyrimidin-5-yl)-3-(2-(pyridin-3-yl)-5-(trifluoromethyl)phenyl)urea] | 0.001 | – | 100
16 | CN(C)c1ccn2ncc(-c3ccc(Oc4ncc(NC(=O)Nc5cc(C(F)(F)F)ccc5-c5cccnc5)cn4)cc3)c2n1 [Example 21-37, 1-(2-{4-[5-(dimethylamino)pyrazolo[1,5-a]pyrimidin-3-yl]phenoxy}-5-pyrimidinyl)-3-[2-(3-pyridinyl)-5-(trifluoromethyl)phenyl]urea] | 0.001 | 98 | –
